In assay [1] the target is MBP-cTlp1 (Azospirillum brasilense, UniProt Q64I05). Nature of the assay: equilibrium dialysis, HPLC quantification. The class given is binding. (In equilibrium dialysis free small molecules cross a membrane that holds back macromolecules.)
Assay [2] concerns the target MBP-cTlp1 (Azospirillum brasilense, UniProt Q64I05, R562A). Nature of the assay: equilibrium dialysis, HPLC quantification. Format: binding.

By Kd is commonly meant a measure of binding affinity in units of concentration. High values mean weaker binding, low ones tighter binding.

MBP-cTlp1 (Azospirillum brasilense, UniProt Q64I05, R562A), sequence (Q64I05 344-660 R562A): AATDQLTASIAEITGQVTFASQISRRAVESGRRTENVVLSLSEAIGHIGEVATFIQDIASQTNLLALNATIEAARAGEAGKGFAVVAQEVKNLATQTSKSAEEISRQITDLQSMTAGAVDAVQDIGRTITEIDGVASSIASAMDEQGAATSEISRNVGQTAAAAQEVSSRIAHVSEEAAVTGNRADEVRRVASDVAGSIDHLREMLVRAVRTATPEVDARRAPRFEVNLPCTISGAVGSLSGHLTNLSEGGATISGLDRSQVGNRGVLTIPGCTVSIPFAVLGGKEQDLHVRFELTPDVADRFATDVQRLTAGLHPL
MBP-cTlp1 (Azospirillum brasilense, UniProt Q64I05), sequence (Q64I05 344-660): as the sequence (Q64I05 344-660 R562A) above, with A219R counted along it

Consider `Nc1nc2c(ncn2[C@@H]2O[C@@H]3CO[P@](=O)(O)O[C@H]4[C@@H](O)[C@H](n5cnc6c(=O)[nH]c(N)nc65)O[C@@H]4CO[P@](=O)(O)O[C@H]3[C@H]2O)c(=O)[nH]1` [c-di-GMP], for which the figures for the Kd on MBP-cTlp1 [1] and at MBP-cTlp1 [2] were 6.9 ± 1.2 µM and 21.8 ± 7.1 µM, respectively.

Source of the values: article PMC3604760 (mBio, 2013).
